Source: patent US10688200B2, “Urea-based prostate specific membrane antigen (PSMA) inhibitors for imaging and therapy” (Five Eleven Pharma Inc., priority 2015, dated 2020)
Blank lines part the entries; values can stand above or below the molecule they belong to.

Test: Biodistribution of radiotracers in normal mice
Assay type: in vivo, mouse
Conditions: for Biodistribution: Blood / Biodistribution: Bone / Biodistribution: Brain / Biodistribution: Heart / Biodistribution: Kidney / Biodistribution: Liver / Biodistribution: Lung / Biodistribution: Muscle / Biodistribution: Pancreas / Biodistribution: Skin / Biodistribution: Spleen: normal male mice
Method: Normal CD-1 male mice were injected via the tail vein with 35 μCi of [^68Ga] radiotracers (0.2 nmole of ligand). […] All organs were removed and blood was also collected. Each organ was weighed, and the tissue radioactivity was measured with an automated gamma counter (Wizard, Perkin Elmer). The % ID/g was calculated by comparison with samples of a standard dilution of the initial dose. All measurements were corrected for decay.

Structure (SMILES): O=C(O)CC[C@H](NC(=O)N[C@@H](CCCCNC(=O)CCCCCNC(=O)CCc1ccc(O)c(CN(CCN(CC(=O)O)Cc2cc(CCC(=O)NCCNC(=O)CN3CCN4CCN5CCN(CC3)CC(=O)[O][177Lu]([O]C(=O)C4)[O]C(=O)C5)ccc2O)CC(=O)O)c1)C(=O)O)C(=O)O [[^177Lu]1g]
Biodistribution: Blood (0.5 hr): 0.64 ± 0.22 % dose/g
Biodistribution: Bone (0.5 hr): 0.22 ± 0.05 % dose/g
Biodistribution: Brain (0.5 hr): 0.03 ± 0.01 % dose/g
Biodistribution: Heart (0.5 hr): 0.28 ± 0.09 % dose/g
Biodistribution: Kidney (0.5 hr): 40.6 ± 10.5 % dose/g
Biodistribution: Liver (0.5 hr): 0.23 ± 0.02 % dose/g
Biodistribution: Lung (0.5 hr): 0.80 ± 0.38 % dose/g
Biodistribution: Muscle (0.5 hr): 0.27 ± 0.07 % dose/g
Biodistribution: Pancreas (0.5 hr): 0.40 ± 0.07 % dose/g
Biodistribution: Skin (0.5 hr): 0.56 ± 0.12 % dose/g
Biodistribution: Spleen (0.5 hr): 0.78 ± 0.37 % dose/g
Biodistribution: Blood (1 hr): 0.15 ± 0.05 % dose/g
Biodistribution: Bone (1 hr): 0.11 ± 0.01 % dose/g
Biodistribution: Brain (1 hr): 0.01 ± 0.00 % dose/g
Biodistribution: Heart (1 hr): 0.14 ± 0.01 % dose/g
Biodistribution: Kidney (1 hr): 30.3 ± 3.50 % dose/g
Biodistribution: Liver (1 hr): 0.12 ± 0.02 % dose/g
Biodistribution: Lung (1 hr): 0.45 ± 0.13 % dose/g
Biodistribution: Muscle (1 hr): 0.11 ± 0.03 % dose/g
Biodistribution: Pancreas (1 hr): 0.32 ± 0.183 % dose/g
Biodistribution: Skin (1 hr): 0.21 ± 0.04 % dose/g
Biodistribution: Spleen (1 hr): 0.92 ± 0.24 % dose/g
Biodistribution: Blood (6 hr): 0.01 ± 0.00 % dose/g
Biodistribution: Bone (6 hr): 0.12 ± 0.01 % dose/g
Biodistribution: Brain (6 hr): 0.01 ± 0.00 % dose/g
Biodistribution: Heart (6 hr): 0.02 ± 0.01 % dose/g
Biodistribution: Kidney (6 hr): 17.8 ± 4.07 % dose/g
Biodistribution: Liver (6 hr): 0.07 ± 0.01 % dose/g
Biodistribution: Lung (6 hr): 0.11 ± 0.00 % dose/g
Biodistribution: Muscle (6 hr): 0.03 ± 0.00 % dose/g
Biodistribution: Pancreas (6 hr): 0.08 ± 0.03 % dose/g
Biodistribution: Skin (6 hr): 0.06 ± 0.00 % dose/g
Biodistribution: Spleen (6 hr): 0.28 ± 0.08 % dose/g
Biodistribution: Blood (24 hr): 0.01 ± 0.00 % dose/g
Biodistribution: Bone (24 hr): 0.12 ± 0.01 % dose/g
Biodistribution: Brain (24 hr): 0.01 ± 0.00 % dose/g
Biodistribution: Heart (24 hr): 0.01 ± 0.00 % dose/g
Biodistribution: Kidney (24 hr): 4.02 ± 1.34 % dose/g
Biodistribution: Liver (24 hr): 0.03 ± 0.00 % dose/g
Biodistribution: Lung (24 hr): 0.03 ± 0.01 % dose/g
Biodistribution: Muscle (24 hr): 0.01 ± 0.00 % dose/g
Biodistribution: Pancreas (24 hr): 0.02 ± 0.01 % dose/g
Biodistribution: Skin (24 hr): 0.04 ± 0.01 % dose/g
Biodistribution: Spleen (24 hr): 0.04 ± 0.00 % dose/g
Initial uptakes in the kidneys, in words (normal mice): comparable to that of [^68Ga]1g

Structure (SMILES): O=C(O)CC[C@H](NC(=O)N[C@@H](CCCCNC(=O)CCCCCNC(=O)CCc1ccc2c(c1)C[N+]13CC[N+]45CC(=O)[O][68Ga-3]14([O]C(=O)C3)([O]2)[O]c1ccc(CCC(=O)NCCNC(=O)CN2CCN(CC(=O)O)CCN(CC(=O)O)CCN(CC(=O)O)CC2)cc1C5)C(=O)O)C(=O)O (some centres unmarked) [[^68Ga]1g]
Biodistribution: Blood (2 min): 7.62 ± 0.08 % dose/g
Biodistribution: Bone (2 min): 1.51 ± 0.17 % dose/g
Biodistribution: Brain (2 min): 0.29 ± 0.06 % dose/g
Biodistribution: Heart (2 min): 2.82 ± 0.21 % dose/g
Biodistribution: Kidney (2 min): 50.9 ± 5.81 % dose/g
Biodistribution: Liver (2 min): 2.00 ± 0.05 % dose/g
Biodistribution: Lung (2 min): 5.19 ± 0.19 % dose/g
Biodistribution: Muscle (2 min): 1.72 ± 0.18 % dose/g
Biodistribution: Pancreas (2 min): 1.73 ± 0.09 % dose/g
Biodistribution: Skin (2 min): 2.00 ± 0.21 % dose/g
Biodistribution: Spleen (2 min): 5.06 ± 0.78 % dose/g
Biodistribution: Blood (30 min): 0.68 ± 0.09 % dose/g
Biodistribution: Bone (30 min): 0.22 ± 0.11 % dose/g
Biodistribution: Brain (30 min): 0.06 ± 0.03 % dose/g
Biodistribution: Heart (30 min): 0.49 ± 0.15 % dose/g
Biodistribution: Kidney (30 min): 110 ± 13.4 % dose/g
Biodistribution: Liver (30 min): 0.47 ± 0.06 % dose/g
Biodistribution: Lung (30 min): 2.13 ± 0.39 % dose/g
Biodistribution: Muscle (30 min): 0.48 ± 0.04 % dose/g
Biodistribution: Pancreas (30 min): 0.73 ± 0.19 % dose/g
Biodistribution: Skin (30 min): 1.13 ± 0.25 % dose/g
Biodistribution: Spleen (30 min): 5.28 ± 2.18 % dose/g
Biodistribution: Blood (60 min): 0.41 ± 0.02 % dose/g
Biodistribution: Bone (60 min): 0.28 ± 0.03 % dose/g
Biodistribution: Brain (60 min): 0.03 ± 0.01 % dose/g
Biodistribution: Heart (60 min): 0.27 ± 0.03 % dose/g
Biodistribution: Kidney (60 min): 116 ± 23.2 % dose/g
Biodistribution: Liver (60 min): 0.43 ± 0.05 % dose/g
Biodistribution: Lung (60 min): 1.33 ± 0.06 % dose/g
Biodistribution: Muscle (60 min): 0.30 ± 0.08 % dose/g
Biodistribution: Pancreas (60 min): 0.48 ± 0.05 % dose/g
Biodistribution: Skin (60 min): 0.92 ± 0.11 % dose/g
Biodistribution: Spleen (60 min): 4.77 ± 2.37 % dose/g
Biodistribution: Blood (120 min): 0.25 ± 0.04 % dose/g
Biodistribution: Bone (120 min): 0.28 ± 0.03 % dose/g
Biodistribution: Brain (120 min): 0.02 ± 0.00 % dose/g
Biodistribution: Heart (120 min): 0.16 ± 0.01 % dose/g
Biodistribution: Kidney (120 min): 95.0 ± 11.2 % dose/g
Biodistribution: Liver (120 min): 0.30 ± 0.01 % dose/g
Biodistribution: Lung (120 min): 0.85 ± 0.16 % dose/g
Biodistribution: Muscle (120 min): 0.23 ± 0.04 % dose/g
Biodistribution: Pancreas (120 min): 0.39 ± 0.04 % dose/g
Biodistribution: Skin (120 min): 0.66 ± 0.10 % dose/g
Biodistribution: Spleen (120 min): 2.48 ± 0.91 % dose/g

More lines, now with the values ahead:

Biodistribution: Blood (2 min): 7.44 ± 1.40 % dose/g
Biodistribution: Bone (2 min): 2.01 ± 0.24 % dose/g
Biodistribution: Brain (2 min): 0.23 ± 0.04 % dose/g
Biodistribution: Heart (2 min): 3.18 ± 0.48 % dose/g
Biodistribution: Kidney (2 min): 50.3 ± 8.32 % dose/g
Biodistribution: Liver (2 min): 2.36 ± 0.27 % dose/g
Biodistribution: Lung (2 min): 4.96 ± 0.67 % dose/g
Biodistribution: Muscle (2 min): 1.96 ± 0.08 % dose/g
Biodistribution: Pancreas (2 min): 1.83 ± 0.40 % dose/g
Biodistribution: Skin (2 min): 2.30 ± 0.20 % dose/g
Biodistribution: Spleen (2 min): 3.40 ± 0.91 % dose/g
Biodistribution: Blood (60 min): 0.44 ± 0.06 % dose/g
Biodistribution: Bone (60 min): 0.70 ± 0.09 % dose/g
Biodistribution: Brain (60 min): 0.03 ± 0.00 % dose/g
Biodistribution: Heart (60 min): 0.42 ± 0.01 % dose/g
Biodistribution: Kidney (60 min): 141.7 ± 0.82 % dose/g
Biodistribution: Liver (60 min): 0.68 ± 0.11 % dose/g
Biodistribution: Lung (60 min): 1.10 ± 0.13 % dose/g
Biodistribution: Muscle (60 min): 0.50 ± 0.07 % dose/g
Biodistribution: Pancreas (60 min): 1.02 ± 0.18 % dose/g
Biodistribution: Skin (60 min): 0.81 ± 0.11 % dose/g
Biodistribution: Spleen (60 min): 5.11 ± 0.97 % dose/g
Structure (SMILES): C[C@H](NC(=O)CCc1ccc2c(c1)C[N+]13CC[N+]45CC(=O)[O][68Ga-3]41([O]C(=O)C3)([O]c1ccc(CCC(=O)NCCCCCC(=O)NCCCC[C@H](NC(=O)N[C@@H](CCC(=O)O)C(=O)O)C(=O)O)cc1C5)[O]2)C(=O)O (some centres unmarked) [[^68Ga]1d]

Biodistribution: Blood (2 min): 7.77 ± 1.51 % dose/g
Biodistribution: Bone (2 min): 2.33 ± 0.38 % dose/g
Biodistribution: Brain (2 min): 0.25 ± 0.02 % dose/g
Biodistribution: Heart (2 min): 3.23 ± 0.64 % dose/g
Biodistribution: Kidney (2 min): 45.0 ± 12.57 % dose/g
Biodistribution: Liver (2 min): 2.43 ± 0.60 % dose/g
Biodistribution: Lung (2 min): 5.07 ± 1.01 % dose/g
Biodistribution: Muscle (2 min): 1.81 ± 0.07 % dose/g
Biodistribution: Pancreas (2 min): 1.72 ± 0.41 % dose/g
Biodistribution: Skin (2 min): 2.44 ± 0.16 % dose/g
Biodistribution: Spleen (2 min): 3.80 ± 0.97 % dose/g
Biodistribution: Blood (60 min): 0.97 ± 0.24 % dose/g
Biodistribution: Bone (60 min): 1.08 ± 0.05 % dose/g
Biodistribution: Brain (60 min): 0.04 ± 0.01 % dose/g
Biodistribution: Heart (60 min): 0.52 ± 0.07 % dose/g
Biodistribution: Kidney (60 min): 120 ± 5.65 % dose/g
Biodistribution: Liver (60 min): 0.79 ± 0.13 % dose/g
Biodistribution: Lung (60 min): 1.37 ± 0.15 % dose/g
Biodistribution: Muscle (60 min): 0.60 ± 0.04 % dose/g
Biodistribution: Pancreas (60 min): 1.13 ± 0.17 % dose/g
Biodistribution: Skin (60 min): 0.98 ± 0.10 % dose/g
Biodistribution: Spleen (60 min): 2.98 ± 1.86 % dose/g
Structure (SMILES): O=C(O)CC[C@H](NC(=O)CCc1ccc2c(c1)C[N+]13CC[N+]45CC(=O)[O][68Ga-3]41([O]C(=O)C3)([O]c1ccc(CCC(=O)NCCCCCC(=O)NCCCC[C@H](NC(=O)N[C@@H](CCC(=O)O)C(=O)O)C(=O)O)cc1C5)[O]2)C(=O)O (some centres unmarked) [[^68Ga]1f]

Biodistribution: Blood (2 min): 7.47 ± 0.33 % dose/g
Biodistribution: Bone (2 min): 2.33 ± 0.05 % dose/g
Biodistribution: Brain (2 min): 0.25 ± 0.07 % dose/g
Biodistribution: Heart (2 min): 3.12 ± 0.17 % dose/g
Biodistribution: Kidney (2 min): 46.6 ± 3.01 % dose/g
Biodistribution: Liver (2 min): 2.00 ± 0.09 % dose/g
Biodistribution: Lung (2 min): 5.08 ± 0.13 % dose/g
Biodistribution: Muscle (2 min): 2.01 ± 0.09 % dose/g
Biodistribution: Pancreas (2 min): 1.80 ± 0.17 % dose/g
Biodistribution: Skin (2 min): 2.46 ± 0.32 % dose/g
Biodistribution: Spleen (2 min): 3.69 ± 0.45 % dose/g
Biodistribution: Blood (60 min): 0.45 ± 0.14 % dose/g
Biodistribution: Bone (60 min): 0.52 ± 0.06 % dose/g
Biodistribution: Brain (60 min): 0.02 ± 0.00 % dose/g
Biodistribution: Heart (60 min): 0.28 ± 0.05 % dose/g
Biodistribution: Kidney (60 min): 113 ± 28.5 % dose/g
Biodistribution: Liver (60 min): 0.35 ± 0.09 % dose/g
Biodistribution: Lung (60 min): 1.14 ± 0.30 % dose/g
Biodistribution: Muscle (60 min): 0.33 ± 0.07 % dose/g
Biodistribution: Pancreas (60 min): 0.74 ± 0.19 % dose/g
Biodistribution: Skin (60 min): 0.67 ± 0.06 % dose/g
Biodistribution: Spleen (60 min): 3.03 ± 0.90 % dose/g
Structure (SMILES): O=C(O)CC[C@H](NC(=O)N[C@@H](CCCCNC(=O)CCCCCNC(=O)CCc1ccc2c(c1)C[N+]13CC[N+]45CC(=O)[O][68Ga-3]14([O]C(=O)C3)([O]2)[O]c1ccc(CCC(=O)N[C@@H](CC(=O)O)C(=O)O)cc1C5)C(=O)O)C(=O)O (some centres unmarked) [[^68Ga]1e]
